Tested on: MV-4-11 cells
Assay: Gene expression microarray analysis (Affymetrix PrimeView) and GSEA
Type: cell-based, human
Set-up: RFU PODN (11730768_x_at) / Fold change /veh PODN (11730768_x_at) / RFU LINC00158 (11744669_a_at) / Fold change /veh LINC00158 (11744669_a_at) / RFU DUSP10 (11751237_a_at) / Fold change /veh DUSP10 (11751237_a_at) / RFU ID3 (11757404_x_at) / Fold change /veh ID3 (11757404_x_at) / RFU PLEKHG5 (11737974_s_at) / Fold change /veh PLEKHG5 (11737974_s_at) / RFU LRRC4B (11730491_at) / Fold change /veh LRRC4B (11730491_at) / RFU GIMAP4 (11747438_a_at) / Fold change /veh GIMAP4 (11747438_a_at) / RFU KRT8 (11758183_x_at) / Fold change /veh KRT8 (11758183_x_at) / RFU CNN1 (11734310_a_at) / Fold change /veh CNN1 (11734310_a_at) / RFU VPS37D (11726825_at) / Fold change /veh VPS37D (11726825_at) / RFU C10orf10 (11716522_x_at) / Fold change /veh C10orf10 (11716522_x_at) / RFU KIR2DL2 /// KIR2DL4 /// KIR2DL5A /// KIR2DL5B /// KIR2DS1 /// KIR2DS2 /// KIR2DS3 /// KIR2DS4 /// KIR3DL3 /// KIR3DL3 /// KIR3DS1 (11738374_at) / Fold change /veh KIR2DL2 /// KIR2DL4 /// KIR2DL5A /// KIR2DL5B /// KIR2DS1 /// KIR2DS2 /// KIR2DS3 /// KIR2DS4 /// KIR3DL3 /// KIR3DL3 /// KIR3DS1 (11738374_at) / RFU C1QL1 (11718748_at) / Fold change /veh C1QL1 (11718748_at) / RFU TMPRSS4 (11747572_a_at) / Fold change /veh TMPRSS4 (11747572_a_at) / RFU HAMP (11756126_x_at) / Fold change /veh HAMP (11756126_x_at) / RFU RNFT2 (11725882_a_at) / Fold change /veh RNFT2 (11725882_a_at) / RFU NR4A2 (11747474_a_at) / Fold change /veh NR4A2 (11747474_a_at) / RFU ABCC12 (11746883_a_at) / Fold change /veh ABCC12 (11746883_a_at) / RFU TMEM136 (11760407_x_at) / Fold change /veh TMEM136 (11760407_x_at) / RFU CLDN22 /// WWC2 (11732394_at) / Fold change /veh CLDN22 /// WWC2 (11732394_at) / RFU HLA-DPB1 (11760878_x_at) / Fold change /veh HLA-DPB1 (11760878_x_at) / RFU SPINT1 (11716480_a_at) / Fold change /veh SPINT1 (11716480_a_at) / RFU GAP43 (11754022_s_at) / Fold change /veh GAP43 (11754022_s_at) / RFU A4GNT (11735810_at) / Fold change /veh A4GNT (11735810_at) / RFU PRB3 (11715151_x_at) / Fold change /veh PRB3 (11715151_x_at) / RFU TUBB4B (11761932_at) / Fold change /veh TUBB4B (11761932_at) / RFU CAPN14 (11732068_a_at) / Fold change /veh CAPN14 (11732068_a_at) / RFU TMCC2 (11721928_a_at) / Fold change /veh TMCC2 (11721928_a_at) / RFU IRGQ (11745062_a_at) / Fold change /veh IRGQ (11745062_a_at) / RFU FAM174B (11720279_a_at) / Fold change /veh FAM174B (11720279_a_at) / RFU TMPRSS4 (11748680_a_at) / Fold change /veh TMPRSS4 (11748680_a_at) / RFU FAM212B (11763350_a_at) / Fold change /veh FAM212B (11763350_a_at) / RFU PLEKHG5 (11743358_a_at) / Fold change /veh PLEKHG5 (11743358_a_at) / RFU ZSCAN30 (11745921_a_at) / Fold change /veh ZSCAN30 (11745921_a_at) / RFU CMKLR1 (11741424_a_at) / Fold change /veh CMKLR1 (11741424_a_at) / RFU LOC101060620 /// MAPK8IP1 (11723275_at) / Fold change /veh LOC101060620 /// MAPK8IP1 (11723275_at) / RFU SPTSSB (11747773_x_at) / Fold change /veh SPTSSB (11747773_x_at) / RFU PRSS12 (11739890_at) / Fold change /veh PRSS12 (11739890_at) / RFU BIN1 (11741810_x_at) / Fold change /veh BIN1 (11741810_x_at) / RFU WNT11 (11732464_a_at) / Fold change /veh WNT11 (11732464_a_at) / RFU C10orf10 (11716521_a_at) / Fold change /veh C10orf10 (11716521_a_at) / RFU C5orf56 (11738089_at) / Fold change /veh C5orf56 (11738089_at) / RFU CYB561 (11721691_x_at) / Fold change /veh CYB561 (11721691_x_at) / RFU ANKRD19P (11752326_a_at) / Fold change /veh ANKRD19P (11752326_a_at) / RFU OR2T12 /// OR2T33 /// OR2T8 (11738714_s_at) / Fold change /veh OR2T12 /// OR2T33 /// OR2T8 (11738714_s_at) / RFU VCAN (11748164_a_at) / Fold change /veh VCAN (11748164_a_at) / RFU JSRP1 (11732532_at) / Fold change /veh JSRP1 (11732532_at) / RFU KRTAP10-11 (11738290_x_at) / Fold change /veh KRTAP10-11 (11738290_x_at) / RFU MYO3A (11730013_a_at) / Fold change /veh MYO3A (11730013_a_at) / RFU EBF3 (11725865_a_at) / Fold change /veh EBF3 (11725865_a_at) / RFU CAMK2N1 (11719241_x_at) / Fold change /veh CAMK2N1 (11719241_x_at) / RFU C5orf56 (11738088_a_at) / Fold change /veh C5orf56 (11738088_a_at) / RFU OLFML3 (11715873_a_at) / Fold change /veh OLFML3 (11715873_a_at) / RFU LOC100653217 /// NTM (11731650_a_at) / Fold change /veh LOC100653217 /// NTM (11731650_a_at) / RFU MAPK11 (11762145_a_at) / Fold change /veh MAPK11 (11762145_a_at) / RFU FIZ1 (11724087_x_at) / Fold change /veh FIZ1 (11724087_x_at) / RFU OASL (11726364_x_at) / Fold change /veh OASL (11726364_x_at) / RFU SOX15 (11748057_x_at) / Fold change /veh SOX15 (11748057_x_at) / RFU CD79A (11719716_a_at) / Fold change /veh CD79A (11719716_a_at) / RFU HIST1H1D (11736915_at) / Fold change /veh HIST1H1D (11736915_at) / RFU CASKIN2 (11723855_a_at) / Fold change /veh CASKIN2 (11723855_a_at) / RFU LOC730098 (11760151_x_at) / Fold change /veh LOC730098 (11760151_x_at) / RFU OR4N2 (11742367_at) / Fold change /veh OR4N2 (11742367_at) / RFU PRRT2 (11749266_a_at) / Fold change /veh PRRT2 (11749266_a_at) / RFU SNX32 (11753110_a_at) / Fold change /veh SNX32 (11753110_a_at) / RFU CDHR5 (11726645_a_at) / Fold change /veh CDHR5 (11726645_a_at) / RFU RCAN1 (11760418_a_at) / Fold change /veh RCAN1 (11760418_a_at) / RFU FAM167A (11723789_a_at) / Fold change /veh FAM167A (11723789_a_at) / RFU FAM26E (11764081_at) / Fold change /veh FAM26E (11764081_at) / RFU ISYNA1 (11749810_s_at) / Fold change /veh ISYNA1 (11749810_s_at) / RFU ACY1 (11761880_at) / Fold change /veh ACY1 (11761880_at) / RFU 11764098_at / Fold change /veh 11764098_at / RFU SAMD14 (11745864_x_at) / Fold change /veh SAMD14 (11745864_x_at) / RFU NPB (11741838_a_at) / Fold change /veh NPB (11741838_a_at) / RFU TMPRSS6 (11731388_a_at) / Fold change /veh TMPRSS6 (11731388_a_at) / RFU KRTAP10-2 (11738614_at) / Fold change /veh KRTAP10-2 (11738614_at) / RFU ARHGAP8 /// PRR5-ARHGAP8 (11727945_x_at) / Fold change /veh ARHGAP8 /// PRR5-ARHGAP8 (11727945_x_at) / RFU KRTAP5-7 /// NADSYN1 (11734609_at) / Fold change /veh KRTAP5-7 /// NADSYN1 (11734609_at) / RFU RASL12 (11751679_a_at) / Fold change /veh RASL12 (11751679_a_at) / RFU CDKN2B (11736163_a_at) / Fold change /veh CDKN2B (11736163_a_at) / RFU PRF1 (11729649_at) / Fold change /veh PRF1 (11729649_at) / RFU, ZNF638 /// ZNF638-IT1 / Fold change vs veh, ZNF638 /// ZNF638-IT1 / RFU, PANK3 / Fold change vs veh, PANK3 / RFU, SH3YL1 / Fold change vs veh, SH3YL1 / RFU, ZEB2 / Fold change vs veh, ZEB2 / RFU, NRIP1 / Fold change vs veh, NRIP1 / RFU, PTTG1IP / Fold change vs veh, PTTG1IP / RFU, CAPN2 / Fold change vs veh, CAPN2 / RFU, MED14 / Fold change vs veh, MED14 / RFU, SNORA58 / Fold change vs veh, SNORA58 / RFU, C1orf63 / Fold change vs veh, C1orf63 / RFU, LRRFIP1 / Fold change vs veh, LRRFIP1 / RFU, NDUFAF7 / Fold change vs veh, NDUFAF7 / RFU, SLC12A2 / Fold change vs veh, SLC12A2 / RFU, IBTK / Fold change vs veh, IBTK / RFU, ESF1 / Fold change vs veh, ESF1 / Fold change vs veh, TMEM50B / RFU, TAOK1 / Fold change vs veh, TAOK1 / RFU, ACBD3 / Fold change vs veh, ACBD3 / RFU, TMA16 / Fold change vs veh, TMA16 / RFU, RWDD3 / Fold change vs veh, RWDD3 / RFU, BCAT1 / Fold change vs veh, BCAT1 / RFU, EDEM3 / Fold change vs veh, EDEM3 / RFU, TMEM33 / Fold change vs veh, TMEM33 / RFU, WDR75 / Fold change vs veh, WDR75 / RFU, AHCTF1 / Fold change vs veh, AHCTF1 / RFU, TFRC / Fold change vs veh, TFRC / RFU, ZDHHC17 / Fold change vs veh, ZDHHC17 / RFU, NOM1 / Fold change vs veh, NOM1 / RFU, ARL8B / Fold change vs veh, ARL8B / RFU, ZBTB11 / Fold change vs veh, ZBTB11 / RFU, TAMM41 / Fold change vs veh, TAMM41 / RFU, KIAA1704 /// LOC100996395 / Fold change vs veh, KIAA1704 /// LOC100996395 / RFU, ING1 / Fold change vs veh, ING1 / RFU, TRMT61B / Fold change vs veh, TRMT61B / RFU, FUBP3 / Fold change vs veh, FUBP3 / RFU, TP53 / Fold change vs veh, TP53 / RFU, TNKS2 / Fold change vs veh, TNKS2 / RFU, ZFP14 / Fold change vs veh, ZFP14 / RFU, ACTR2 / Fold change vs veh, ACTR2 / RFU, PPP3R1 / Fold change vs veh, PPP3R1 / RFU, PIK3R1 / Fold change vs veh, PIK3R1 / RFU, HNRNPA1 / Fold change vs veh, HNRNPA1 / RFU, RNF170 / Fold change vs veh, RNF170 / RFU, ZNF28 / Fold change vs veh, ZNF28 / RFU, RNGTT / Fold change vs veh, RNGTT / RFU, OGT / Fold change vs veh, OGT / RFU, BRD1 / Fold change vs veh, BRD1 / RFU, MARS / Fold change vs veh, MARS / RFU, ZNF655 / Fold change vs veh, ZNF655 / RFU, FAHD1 / Fold change vs veh, FAHD1 / RFU, BDP1 / Fold change vs veh, BDP1 / RFU, LRRCC1 / Fold change vs veh, LRRCC1 / RFU, ARID1A / Fold change vs veh, ARID1A / RFU, ZNF146 / Fold change vs veh, ZNF146 / RFU, ZNF330 / Fold change vs veh, ZNF330 / RFU, GPN3 / Fold change vs veh, GPN3 / RFU, C9orf123 / Fold change vs veh, C9orf123 / RFU, N4BP2L2 / Fold change vs veh, N4BP2L2 / RFU, ARFIP1 / Fold change vs veh, ARFIP1 / RFU, FAM179B / Fold change vs veh, FAM179B / RFU, BCL10 / Fold change vs veh, BCL10 / RFU, UHRF1BP1L / Fold change vs veh, UHRF1BP1L / RFU, BET1 / Fold change vs veh, BET1 / RFU, CNOT2 / Fold change vs veh, CNOT2 / RFU, ZNF268 / Fold change vs veh, ZNF268 / Fold change vs veh, ZNF507 / RFU, DGCR2 / Fold change vs veh, DGCR2 / RFU, WDSUB1 / Fold change vs veh, WDSUB1 / Fold change vs veh, HSP90B1 /// MIR3652 / RFU, ADSS / Fold change vs veh, ADSS / RFU, GK / Fold change vs veh, GK / RFU, ZNF148 / Fold change vs veh, ZNF148 / RFU, TAF9 / Fold change vs veh, TAF9 / RFU, SLC1A5 / Fold change vs veh, SLC1A5 / RFU, SLMO2 / Fold change vs veh, SLMO2 / RFU, ABCC4 / Fold change vs veh, ABCC4 / RFU, LOC101060439 /// RAP1B / Fold change vs veh, LOC101060439 /// RAP1B / RFU, RFX7 / Fold change vs veh, RFX7 / RFU, GTPBP10 / Fold change vs veh, GTPBP10 / RFU, CNEP1R1 / Fold change vs veh, CNEP1R1 / RFU, BIVM-ERCC5 /// ERCC5 / Fold change vs veh, BIVM-ERCC5 /// ERCC5 / RFU, ILF3 / Fold change vs veh, ILF3 / RFU 11762660_at / Fold change /veh 11762660_at / RFU VCAN (11757783_s_at) / Fold change /veh VCAN (11757783_s_at) / RFU DDX43 (11728927_at) / Fold change /veh DDX43 (11728927_at) / RFU KRT8 (11758188_x_at) / Fold change /veh KRT8 (11758188_x_at) / RFU NKD1 (11759106_at) / Fold change /veh NKD1 (11759106_at) / RFU SRD5A1 (11742802_a_at) / Fold change /veh SRD5A1 (11742802_a_at) / RFU TPSAB1 /// TPSB2 (11721975_s_at) / Fold change /veh TPSAB1 /// TPSB2 (11721975_s_at) / RFU GSTM3 (11746129_a_at) / Fold change /veh GSTM3 (11746129_a_at) / RFU IL23R (11737362_x_at) / Fold change /veh IL23R (11737362_x_at) / RFU TMEM51 (11727254_a_at) / Fold change /veh TMEM51 (11727254_a_at) / RFU PIWIL2 (11732686_x_at) / Fold change /veh PIWIL2 (11732686_x_at) / RFU ORM1 (11744905_x_at) / Fold change /veh ORM1 (11744905_x_at) / RFU CCDC152 (11743942_at) / Fold change /veh CCDC152 (11743942_at) / RFU ECM1 (11717891_a_at) / Fold change /veh ECM1 (11717891_a_at) / RFU IL23R (11748794_a_at) / Fold change /veh IL23R (11748794_a_at) / RFU TNFAIP8L3 (11732012_x_at) / Fold change /veh TNFAIP8L3 (11732012_x_at) / RFU MBOAT4 (11741988_at) / Fold change /veh MBOAT4 (11741988_at) / RFU 11764193_at / Fold change /veh 11764193_at / RFU TMEM53 (11763286_at) / Fold change /veh TMEM53 (11763286_at) / RFU MAGEB2 (11727129_at) / Fold change /veh MAGEB2 (11727129_at) / RFU TMEM200A (11744735_a_at) / Fold change /veh TMEM200A (11744735_a_at) / RFU CCDC152 (11751479_a_at) / Fold change /veh CCDC152 (11751479_a_at) / RFU FAM211A (11726209_a_at) / Fold change /veh FAM211A (11726209_a_at) / RFU RGS16 (11746705_a_at) / Fold change /veh RGS16 (11746705_a_at) / RFU VCAN (11755009_s_at) / Fold change /veh VCAN (11755009_s_at) / RFU RHOB (11743442_s_at) / Fold change /veh RHOB (11743442_s_at) / RFU RGS16 (11720943_a_at) / Fold change /veh RGS16 (11720943_a_at) / RFU RGS16 (11720944_at) / Fold change /veh RGS16 (11720944_at) / RFU, VPS4B / Fold change vs veh, VPS4B / RFU, CREB1 / Fold change vs veh, CREB1 / RFU, DNAJC13 / Fold change vs veh, DNAJC13 / RFU, GNAQ / Fold change vs veh, GNAQ / RFU, CDK5R1 / Fold change vs veh, CDK5R1 / RFU, ZRANB3 / Fold change vs veh, ZRANB3 / RFU, CUL4A / Fold change vs veh, CUL4A / RFU, CCNY / Fold change vs veh, CCNY / RFU, UFL1 / Fold change vs veh, UFL1 / RFU, COG3 / Fold change vs veh, COG3 / RFU, DIAPH2 / Fold change vs veh, DIAPH2 / RFU, SKA2 / Fold change vs veh, SKA2 / RFU, AFF3 / Fold change vs veh, AFF3 / RFU, LMF1 / Fold change vs veh, LMF1 / RFU, IPO11 / Fold change vs veh, IPO11 / RFU, DFFB / Fold change vs veh, DFFB / RFU, FOXP1 / Fold change vs veh, FOXP1 / RFU, CARD8 / Fold change vs veh, CARD8 / RFU, STRN3 / Fold change vs veh, STRN3 / RFU, ADK / Fold change vs veh, ADK / RFU, RASSF2 / Fold change vs veh, RASSF2 / RFU, WIPF1 / Fold change vs veh, WIPF1 / RFU, LARP1B / Fold change vs veh, LARP1B / RFU, RASA1 / Fold change vs veh, RASA1 / RFU, RB1 / Fold change vs veh, RB1 / RFU, PPFIA1 / Fold change vs veh, PPFIA1 / RFU, MAT2A / Fold change vs veh, MAT2A / RFU, CCT5 / Fold change vs veh, CCT5 / RFU, WDR92 / Fold change vs veh, WDR92 / RFU, CUX1 / Fold change vs veh, CUX1 / RFU, TTC7A / Fold change vs veh, TTC7A / RFU, TMEM135 / Fold change vs veh, TMEM135 / RFU, DEPTOR / Fold change vs veh, DEPTOR / RFU, CPM / Fold change vs veh, CPM / RFU, DNAJB6 / Fold change vs veh, DNAJB6 / RFU, CACNA2D3 / Fold change vs veh, CACNA2D3 / RFU, DTX4 / Fold change vs veh, DTX4 / RFU, TFCP2 / Fold change vs veh, TFCP2 / RFU, GMCL1 /// GMCL1P1 / Fold change vs veh, GMCL1 /// GMCL1P1 / RFU, AEBP2 / Fold change vs veh, AEBP2 / RFU, SNHG1 /// SNORD22 /// SNORD25 /// SNORD26 /// SNORD27 /// SNORD28 /// SNORD29 /// SNORD31 / Fold change vs veh, SNHG1 /// SNORD22 /// SNORD25 /// SNORD26 /// SNORD27 /// SNORD28 /// SNORD29 /// SNORD31 / Fold change (Aza/veh), C12orf56 (ProbeSet 11735607_a_at) / Fold change (ACY-1035/veh), C12orf56 (ProbeSet 11735607_a_at) / Fold change (Aza/veh), FGFR1OP (ProbeSet 11751329_s_at) / Fold change (ACY-1035/veh), FGFR1OP (ProbeSet 11751329_s_at) / Fold change (Aza/veh), VPS36 (ProbeSet 11739960_a_at) / Fold change (ACY-1035/veh), VPS36 (ProbeSet 11739960_a_at) / RFU SYPL1 (11715823_x_at) / Fold change /veh SYPL1 (11715823_x_at) / RFU IGFBP7 (11715501_s_at) / Fold change /veh IGFBP7 (11715501_s_at) / RFU REEP3 (11722064_at) / Fold change /veh REEP3 (11722064_at) / RFU IGLL1 (11728026_x_at) / Fold change /veh IGLL1 (11728026_x_at): dose or concentration left out as unconfirmed
Settings: ProbeSet 11739263_x_at; LIST D

Nc1ccc(-c2cccs2)cc1NC(=O)c1ccc2c(c1)cc(C1CC1)n2CCN1CCOCC1 [ACY-1035]
RFU, VPS4B: 70.19 RFU
